Assays:
Plasmodium falciparum [1] = experiment: NOVARTIS: Inhibition of Plasmodium falciparum 3D7 (drug-susceptible) proliferation in erythrocyte-based infection assay; type: functional, organism-based; settings: Plasmodium falciparum, 3D7
Plasmodium falciparum [2] = experiment: NOVARTIS: Inhibition of Plasmodium falciparum W2 (drug-resistant) proliferation in erythrocyte-based infection assay; type: functional, organism-based; settings: Plasmodium falciparum, W2; read-out: EC50
[3] = NOVARTIS: Cytotoxicity against human hepatocellular carcinoma cell line (Huh7); type: toxicity, cell-based, Huh-7; settings: Huh7 cells (hepatocellular carcinoma cell line)

Structure (SMILES) | EC50 (Plasmodium falciparum [1]) [nM] | EC50 (Plasmodium falciparum [2]) [nM] | CC50 [3] [nM]
COc1cc(CN(CCCN2CCOCC2)C(=O)Nc2cccc(C)c2)ccc1OCc1ccccc1 | > 1250 | 8.39 | > 10000
CCCCCCCCC(=O)Nc1c(C)cccc1C | > 1250 | 26.7 | > 10000
CCCCCCN(C(=O)c1ccc2ccccc2c1)C(CC)c1nc2ccccc2c(=O)n1-c1ccc(F)cc1 (stereo not given) | 454 | 548 | > 10000
CN(CCCNc1ccnc2cc(Cl)ccc12)C(=O)c1ccc(Br)cc1 | 688 | 13.4 | 2610
CCc1cccc(NS(=O)(=O)c2ccc3[nH]c(=O)c(=O)[nH]c3c2)c1 | > 1040 | > 1450 | > 10000
COc1ccc(C2C(C(=O)c3ccccc3)=C(O)C(=O)N2c2cccc(Cl)c2)c(OC)c1 (stereo not given) | > 12500 | 2590 | > 100000
Cc1cc(C)c2nc(NS(=O)(=O)c3cccc(C(=O)O)c3)sc2c1 | 693 | 1250 | > 10000
Cc1nc(-c2ccc[n+](C)c2)sc1C(=O)C=Cc1ccc(Cl)cc1 | 341 | 797 | 65200
Cc1ccc(N2C(=O)C3C(C2=O)C2(c4ccccc4)C(=O)C3(c3ccccc3)C(c3ccccc3)=C2c2ccccc2)c([N+](=O)[O-])c1 (stereo not given) | 2640 | > 12500 | > 100000
Nc1c(C(=O)NCc2ccccc2)nnn1Cc1ccc(F)cc1Cl | > 860 | 722 | > 10000
O=C(Nc1ccccc1)Nc1ccc(S(=O)(=O)Nc2ccc(Br)cc2)cc1 | 662 | 1160 | > 10000
Cc1ccc(N(C(=O)c2snc(C(=O)NC3CCCCC3)c2N)C(C(=O)NCCc2ccccc2)c2ccc(O)cc2)c(C)c1 (stereo not given) | 1480 | 672 | > 100000
CC(C)CNC(=O)c1cnc(NCCCN2CCCC2)nc1NCC1CCCCC1 | 474 | > 1350 | > 10000
CCOC(=O)C1=C(c2ccccc2)N=c2sc(=Cc3cccnc3)c(=O)n2C1c1c(OC)ccc2ccccc12 (stereo not given) | 4150 | 1550 | > 100000
O=S(=O)(c1ccc(Cl)cc1)N1CCN(C(=S)NCc2ccco2)CC1 | 973 | 524 | > 100000
O=C(C[n+]1ccccc1)NN=Cc1ccc(Cl)c(Cl)c1 | 2840 | 3380 | > 100000
Clc1ccccc1C(c1ccccc1)(c1ccccc1)n1ccnc1 [CLOTRIMAZOLE] | 280 | 338 | 25800
Clc1cccc(CNC2CCN(CCc3ccccc3)CC2)c1 | 298 | 801 | 3040
CN(C)C(=O)O[n+]1ccc(N(C)C)cc1 | > 990 | > 897 | > 10000
Cc1nc(NC(=N)N)nc2ccccc12 | 887 | 858 | 66400
CC(C)CN1C(=O)c2ccccc2C(C(=O)Nc2ccc(F)cc2F)C1c1cccs1 (stereo not given) | 219 | 129 | > 100000
CCCCCN(C(=O)c1ccc2ccccc2c1)C(CC)c1nc2ccccc2c(=O)n1-c1ccccc1OC (stereo not given) | 752 | > 1230 | > 10000

Structure (SMILES) | EC50 (Plasmodium falciparum [1]) [nM] | EC50 (Plasmodium falciparum [2]) [nM] | CC50 [3] [nM]
CC1=C(C(=O)OC2CCCCC2)C(c2ccc(F)cc2)C2=C(CC(c3ccccc3)CC2=O)N1 (stereo not given) | 3690 | 653 | > 100000
CC1(C)CC(=O)C2=C(C1)Nc1ccccc1N(C(=O)Cc1ccccc1)C2c1ccc([N+](=O)[O-])s1 (stereo not given) | > 1250 | 89.8 | > 10000
O=C(c1cc([N+](=O)[O-])cc([N+](=O)[O-])c1)N1CCN(c2cccc(C(F)(F)F)c2)CC1 | 1180 | 1100 | > 10000
COc1cc(C=NNc2nc3cc(Cl)ccc3[nH]2)cc(OC)c1OC | 904 | 1080 | > 10000
O=C(c1nccs1)C1CCN(C(=O)c2cscn2)CC1 | > 1250 | 1390 | > 10000
CCN(CC)[P+](N(C)C[Si](C)(C)C)(N(CC)CC)N(CC)CC | 154 | 523 | 8410
Cc1nc([P+](c2ccccc2)(c2ccccc2)c2ccccc2)c(N2CCCCC2)o1 | 761 | 967 | 7120
COc1cc(NC(C)CCCN(Cc2ccc(OC)c(OC)c2)C(=O)c2ccc3ccccc3c2)c2ncccc2c1 (stereo not given) | 409 | 247 | 5330
O=C(C1CCN(S(=O)(=O)c2cccc3nonc23)CC1)N1CCCc2ccccc21 | > 1250 | 534 | > 10000
CCOC(=O)c1c(NC(=O)CCC(=O)OC)sc2c1CC(C)(C)SC2 | > 650 | > 1110 | > 10000
CC1CNC2C(C)C3C(CC4C5CCC6CC(N)CCC6(C)C5CCC43C)OC2(O)C1 (stereo not given) | 863 | < 12.7 | > 10000
CN(C)c1nnc(/C(C#N)=C/c2cc(C(=O)c3cccc(Cl)c3)cn2C)o1 | 936 | > 1250 | > 10000
Cc1ccc(COc2ccc3c(C#N)c4ccccn4c3c2)cc1 | 2090 | 1370 | > 100000
Cc1ccccc1N(CC(=O)NCC1CCCO1)C(=O)c1snc(C(N)=O)c1N (stereo not given) | > 706 | > 1250 | > 2400
CN(Cc1ccsc1)C(=O)CCc1nnc(CCCc2ccccc2)o1 | > 1250 | 270 | > 10000
COc1ccc(/C=C/C(=O)Nc2ccc3nc(N4CCN(C)CC4)cc(C)c3c2)cc1OC | 872 | > 1250 | > 10000
CC(=O)O[C@@H]1C(=O)[C@@]2(C)[C@H]([C@H](OC(=O)c3ccccc3)[C@@]3(O)C[C@H](OC(=O)[C@H](O)[C@@H](NC(=O)c4ccccc4)c4ccccc4)C(C)=C1C3(C)C)[C@]1(OC(C)=O)CO[C@@H]1C[C@@H]2O | 98.2 | 38.6 | 1210
COC(=O)[C@]1(C)CC[C@]2(C)CC[C@]3(C)C4=CC=C5C(=CC(=O)C(O)=C5C)[C@]4(C)CC[C@@]3(C)[C@@H]2C1 [PRISTIMERIN] | > 1250 | > 820 | > 6250
C(#Cc1ccccc1)C[N+]1(CC#Cc2ccc(C#CC[N+]3(CC#Cc4ccccc4)CCCCC3)cc2)CCCCC1 | 493 | 252 | > 100000
CCCN1CCN(C(=O)CCNC(=O)Cn2cnc3ccccc3c2=O)CC1 | > 1250 | 1590 | > 10000
CC(C)[C@@]1(NC(=O)[C@@H]2C[C@@H]3c4cccc5[nH]cc(c45)C[C@H]3N(C)C2)O[C@@]2(O)[C@@H]3CCCN3C(=O)[C@H](CC3CCCCC3)N2C1=O | 1160 | 768 | > 11400
COc1ccc(NC(=O)C2c3ccccc3C(=O)N(CC(C)C)C2c2cccs2)cc1Cl (stereo not given) | 91.4 | 55.6 | > 100000

Structure (SMILES) | EC50 (Plasmodium falciparum [1]) [nM] | EC50 (Plasmodium falciparum [2]) [nM] | CC50 [3] [nM]
CN(CCCNc1ccnc2cc(Cl)ccc12)C(=O)c1ccc(Cl)c(Cl)c1 | 36.6 | 122 | > 8360
COc1ccc(S(=O)(=O)N2CCCCC2C(=O)NC(CN2CCCC2)c2ccccc2)cc1 (stereo not given) | 168 | 122 | > 10000
CN(CCCNc1ccc(C(=O)Nc2ccc(C(F)(F)F)cc2)cc1[N+](=O)[O-])Cc1ccccc1 | 316 | 720 | > 100000
CCOc1ccc(-n2cc(-c3ccccc3)c3c(SCc4cc(C)ccc4C)ncnc32)cc1 | 2010 | > 1250 | > 10000
C[n+]1c(/C=C/c2ccc(F)cc2)ccc2ccccc21 | 104 | 90.7 | > 10000
COc1nc(C)nc(NC(=O)NC(=O)c2c(OC)ccc([N+](=O)[O-])c2OC)n1 | > 266 | > 164 | > 10000
CC(=O)Nc1ccc(NS(=O)(=O)c2cc([N+](=O)[O-])ccc2Cl)cc1 | > 12500 | 475 | > 100000
CCCN(CCC)CC(O)COc1ccccc1C(=O)Nc1ccccc1 (stereo not given) | 365 | 51.1 | > 100000
c1ccc(N=Nc2nnc(Nc3ccccc3)s2)cc1 | 957 | 884 | > 10000
COC(=O)C1=CN(Cc2ccc(Cl)cc2)C=C(C(=O)OC)C1c1ccc(Cl)c(Cl)c1 | > 8190 | 2360 | > 100000
CCOc1ccc2nc(NCCNC(=O)c3ccco3)c(C)cc2c1 | > 1250 | > 279 | > 10000
COc1ccc2nc(NC(=N)N)nc(C)c2c1 | 712 | 867 | 57500
Cc1cc2nc3ccc(N(C)C)cc3[n+](-c3ccccc3)c2cc1N | 156 | 31.2 | > 10000
COc1cccc(NC(=O)c2cccc3c(=O)c4c([nH]c23)CCCC4)c1 | 957 | 168 | > 100000
COc1ccccc1NC(=O)CCCC(=O)OC(C)C(=O)c1ccccc1 (stereo not given) | > 1250 | > 659 | > 10000
N#Cc1cc(N2CC3CC(C2)c2cccc(=O)n2C3)c([N+](=O)[O-])cc1C#N (stereo not given) | > 12500 | 3360 | > 100000
CCCCCCCCC(=O)NCCCCNc1ccnc2cc(Cl)ccc12 | 1140 | 286 | 5600
CCCN1/C(=C/c2sc3ccccc3[n+]2CC)C=Cc2ccccc21 | 820 | 1340 | > 10000
CC1CN(C(=O)CCCSc2nnc(Cc3ccccc3)n2-c2ccc(Cl)c(Cl)c2)CC(C)O1 (stereo not given) | > 12500 | 2230 | > 100000
C[n+]1ccc(C2OC2c2ccccc2)c2ccccc21 (stereo not given) | 1380 | 1740 | > 10000
CN(CC(=O)NC(C)(C)C)S(=O)(=O)c1ccccc1 | > 1250 | > 1000 | > 10000
